Data on one compound can be found in patent US12414951B2, “Use of compound in preparation of medicament for prophylaxis and treatment of inflammatory tissue damage” (Sichuan University, priority 2022, dated 2025).

The target in one assay is T1, IRF1 (Homo sapiens, UniProt P10914).
T1 construct: Human skin keratinocytes (HaCaT cells) were infected in vitro according to a titer of 100 MOI; endogenous in cells; host or cells: HaCaT human skin keratinocytes infected with an h-IRF1 promoter-rluc reporter adenovirus
T1 sequence (P10914 1-325): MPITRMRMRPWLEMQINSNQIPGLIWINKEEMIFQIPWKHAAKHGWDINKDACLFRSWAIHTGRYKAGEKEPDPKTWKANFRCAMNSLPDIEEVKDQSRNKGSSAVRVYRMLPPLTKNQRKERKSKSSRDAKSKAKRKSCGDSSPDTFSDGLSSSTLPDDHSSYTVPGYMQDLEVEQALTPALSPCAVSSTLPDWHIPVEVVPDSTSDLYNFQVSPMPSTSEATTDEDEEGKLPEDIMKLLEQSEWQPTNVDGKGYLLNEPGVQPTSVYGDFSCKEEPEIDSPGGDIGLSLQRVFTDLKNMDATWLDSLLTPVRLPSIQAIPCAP
Description: IRF1 transcriptional activity, dual-luciferase reporter system in irradiated HaCaT cells. The conditions noted are these: 10 μM 24 h before irradiation, X-ray 20 Gy, detection 1 h after irradiation, P<0.01. It is filed as cell-based. The source says:
To determine the inhibitory effect of the compound (IRSKIN-1) on the transcriptional activity of IRF1, Hanbio Biotechnology (Shanghai) Co., Ltd. was entrusted to construct an h-IRF1 promoter-rluc adenovirus vector. The vector has four binding sites of IRF1, and the downstream of the promoter is a luciferase reporter gene. The virus was constructed based on a dual-luciferase reporter system, and the transcriptional activity of IRF1 could be directly reflected by the luciferase activity. Human skin keratinocytes (HaCaT cells) were infected in vitro according to a titer of 100 MOI, and the virus infection efficiency met the experimental requirement 48 h after infection.
A microplate reader PROMEGA and the corresponding substrates were used for detection 1 h after irradiation.
A general note: Reporter assays use an easily measured gene product as a stand-in for the process of interest.

In assay [1] the test system is irradiated skin cells. Description: colony formation test of irradiated skin cells. The assay is classed as cell-based. The conditions noted are these: 10 μM for 24 h before irradiation; X-ray 2 Gy once or twice or Sr 90 4 Gy once; vs DMSO, P<0.01. The method, then:
To determine the promoting effect of IRF1 inhibitor IRSKIN-1 on irradiated skin cell proliferation, cells were treated with 10 μM IRSKIN-1 or equivalent DMSO for 24 h before irradiation, respectively; subsequently, the cells were subjected to fractionated irradiation at 2 Gy once or at 2 Gy twice or Sr 90 irradiation at 4 Gy once, respectively; subsequently, the effect of IRSKIN-1 on irradiated cell proliferation ability was evaluated by the colony formation test (2,500 cells were spread on each well of a 6-well plate).

The test system of assay [2] is irradiated skin cells. Description: mortality of irradiated skin cells by AV/PI staining. It is filed as cell-based. Particulars: 10 μM for 24 h before irradiation; 20 Gy X-ray once; 3 days after irradiation; vs DMSO, P<0.01. The method, then:
To determine whether IRSKIN-1 reduces the mortality of irradiated skin cells, cells were treated with 10 μM IRSKIN-1 or equivalent DMSO for 24 h before irradiation, respectively; subsequently, the cells were irradiated with 20 Gy X-ray once, and the effect of IRSKIN-1 on irradiated cell proliferation ability was evaluated by AV/PI staining method 3 days after irradiation.

Another assay concerns mouse primary skin cells. Description: senescence of irradiated primary skin cells by β-galactosidase staining. The assay is classed as cell-based. Particulars: 10 μM for 24 h before irradiation; 20 Gy X-ray once; 3 days after irradiation; vs DMSO, P<0.01. The protocol: To determine whether IRSKIN-1 reduces the senescence rate of irradiated skin cells, mouse primary skin cell were isolated and cultured, cells were treated with 10 μM IRSKIN-1 or equivalent DMSO for 24 h before irradiation, respectively; subsequently, the cells were irradiated with 20 Gy X-ray once, and the effect of IRSKIN-1 on irradiated primary cell senescence was evaluated by β-galactosidase staining method 3 days after irradiation.

In assay [3] the test system is radiation-induced skin injury in C57 BL/6J mice. Description: radiation-induced skin injury mouse model, subcutaneous injection. The assay is classed as in vivo. The conditions noted are these: 1 and 3 days before irradiation. The protocol: (§1) Male C57 BL/6J mice aged 6-8 weeks were purchased from GemPharmatech Co., Ltd. The mice were acclimatized and randomized into two groups (6 mice per group); the mice were subcutaneously injected with IRSKIN-1 (which was dissolved in DMSO to prepare a 50 mM solution, 100 μL/time) and equivalent DMSO once 1 and 3 days before irradiation, respectively; based on 1% of the body weight of each mouse, the mouse was anesthetized by intraperitoneal injection of 1% chloral hydrate, the skin of hind limbs of the mouse was depilated, and the mouse was immobilized on a board to reduce accidental movements during irradiation.
(§2) The skin of limbs of mice was irradiated with 6 MeV electron ray generated by Varian 23EX Linear Accelerator (Varian, the USA); the surface was covered with a 1 cm thick bolus, and non-irradiated sites were shielded with a lead plate; the irradiation area was approximately 30×40 mm, the absorbed dose rate was 750 cGy/min, and the total dose was 45 Gy; and the range of the irradiated area was outlined with a marker pen during irradiation.

Assay [4] deals with inflammatory factors in irradiated skin tissue. Description: inflammation microarray of irradiated skin tissue of treated mice. It is filed as in vivo, mouse. The conditions noted are these: s.c. treatment, FIG. 10. The method, then: as §1, §2
Assay [5] has as its system Caspase1, GSDMD and IL1 in irradiated skin cells. Description: Western blot of pyroptosis pathway proteins in irradiated skin cells. The assay is classed as cell-based. The conditions noted are these: 10 μM for 24 h before irradiation, 20 Gy X-ray once. The protocol:
To determine the mechanism of the inhibitory effect of IRF1 inhibitor IRSKIN-1 on inflammatory death in the irradiated skin cells, cells were treated with 10 μM IRSKIN-1 or equivalent DMSO for 24 h before irradiation, respectively; subsequently, the cells were irradiated with 20 Gy X-ray once, and changes in key proteins of cell pyroptosis pathway, Caspase1 and GSDMD, and inflammatory factor IL1 were detected by Western blot, so as to determine the inhibitory effect of IRSKIN-1 on inflammatory death in the irradiated skin cells and its mechanism.

[6] abbreviates: s.c. 50 mM in DMSO 100 μL/time, 45 Gy electron ray.

Each structure is given as a SMILES string.

In the case of `O=C(CCn1cnc2ccccc2c1=O)Nc1ccc(S(=O)(=O)N2CCCCC2)cc1` [IRSKIN-1, 3-(4-oxo-3 (4H)-quinazolinyl)-N-[4-(1-piperidinylsulfonyl)phenyl]propanamide], the “irradiated IRF1 transcriptional activity (luciferase activity) vs DMSO-treated irradiation group” value on IRF1 was “significantly lower”. For the same compound, in the assay with irradiated skin cells [1], the “clone formation ability of irradiated skin cells” value was “significantly improve”. Moreover, in the assay on irradiated skin cells [2], the “cell mortality after X-ray irradiation (AV/PI staining)” value is recorded as “reduce cell mortality”. For the same compound, the “β-galactosidase positive rate (senescence) of mouse primary cells” value in the assay on mouse primary skin cells is “reduce the β-galactosidase positive rate”. Further, the “wet ulcers of the skin” value in assay [3] (s.c. 50 mM 100 μL/time, 45 Gy, FIG. 8, 15 and 30 days after irradiation) is “wet ulcers appeared in only fewer areas”. In addition, the “progression scores of radiation-induced skin injury” value in assay [3] (s.c. 50 mM 100 μL/time, 45 Gy, FIG. 9) is given as “reducing progression scores”. For the same compound, in assay [3] (setting [6]), the “progression of radiation-induced skin injury vs DMSO group” value was “slower” and the “ulcer wound area vs DMSO group” value is “smaller ulcer wound area”. Moreover, in assay [4], the “expression of BLC in skin tissue” value was “downregulated”, the “expression of G-CSF in skin tissue” value is listed as “upregulated”, the “expression of MIP-1a in skin tissue” value is “upregulated” and the “expression of TNF-R II in skin tissue” value is listed as “upregulated”. Besides, in assay [5], the “hydrolysis of Caspase1” value is on record as “inhibit the hydrolysis”, the “hydrolysis of GSDMD” value is given as “inhibit the hydrolysis” and the “hydrolysis of IL1” value is “inhibit the hydrolysis”.
